Legend:
[1] = system: Ipomoea gradifolia (IAOGR); assay: Ex 4 pre-emergence, visual % damage; type: in vivo; details: kg/ha or L/ha: Amicarbazone 1.50, Gesapax 5.00, Karmex 5.00, Provence 0.20, Sencor 3.50, alone
Protocol: DINAMIC® (amicarbazone) in combination of various herbicides listed in Table 4-1 were tested for herbicidal activity.
The herbicidal effect was observed by comparing the extent of Ipomoea gradifolia (IAOGR) treated with the compounds against that occurring in similar non-treated control. Herbicidal effect was visually assessed and recorded at 14, 23, 36, 49, 65 and 77 days after treatment (DAT). Damage by the herbicidal compositions was evaluated with reference to a scale of 0% to 100% in comparison with untreated control. 0% means no damage and 100% means complete destruction of the plants. […] The theoretical herbicidal effect index were calculated based on Colby and the values were indicated in bracket ( ). […] Some of the observed herbicidal effects were the same as the theoretical hervicidal effects, which indicate additive effects. The underlined values in the table indicate that the observed weed killing is greater than calculated from the Colby formula and therefore indicates a synergistic weed killing effect or activity.

[2] = system: Green Foxtail; assay: Ex 5/7 greenhouse spray, bleaching/injury ratings; type: in vivo
Protocol: (§1) Containers were watered as needed based on species and water usage. The greenhouse was heated to keep temperatures above 50° F. (10° C.) and ventilated as needed to keep temperatures below 100° F. (38° C.). Typical daytime temperatures in the greenhouse were 80-90° F. (27-32° C.) and nighttime temperatures were between 50-60° F. (10-16° C.). The soil employed was Promix BX potting soil. Overall moisture conditions were normal and the closest weather station was on-site. Conditions and equipment employed in this Example are tabulated below in Tables 5-1 and 5-2.
(§2) All containers were moved outdoors from the greenhouse and arranged in blocks by treatment for the herbicide applications. A single spray application was applied to each block containing four repetitions of each species for each treatment. Plants were then immediately returned to the greenhouse and irrigated with approximately ¼″ water 1-3 hrs after treatment with a hose end sprayer. Only the Poa plants were trimmed with scissors two days prior to treatment at a height of approximately 3 inches.
(§3) Referring to FIGS. 2A-B, 3A-C, 4A-C, and 5A-D, all ratings of injury or bleaching are based on a scale from 1 to 9. […] Any bleaching measurement 4 and above was considered unacceptable for desirable turf species. In injury measurements, 1 indicates no injury while 9 indicates a dead plant. Any injury measurement 4 and above was considered unacceptable for desirable turf species). Density correlates with percent cover where 1 indicates no grass while 9 indicates a full pot.
(§4) Replications employed include 4, Untreated treatments: 1, Design: Randomized Complete Block, Treatment units: US standard, Treated plot size Width: 4 feet, Treated plot size Length: 4 feet, Application volume: 50 gal/ac, Mix size: 0.5562 liters, Mix overage: 100%, Format definitions: G-All7.DEF, G-All7.FRM.
(§5) In evaluating synergism, the data from Example 5 above were converted to % of control. This was done based on the data provided on a 1-9 scale detailed in Example 5. Expected values were computed from the % of control data by the formula for expected control=[…], where A is the % of control value for herbicide A alone and B is the % of control value for herbicide B alone.

[3] = system: Kentucky Bluegrass Seedling; details: in vivo
Protocol: as §1, §2
[…] Tall fescue was seeded into the crabgrass pots. St. Augustine plants (Floratam and Saphire) were shipped from Port St. Lucie, Fla. Only two replicates of Saphire St. Augustine grass were used due to plant availability.
Referring to FIGS. 2A-B, 3A-C, 4A-C, and 5A-D, all ratings of injury or bleaching are based on a scale from 1 to 9. […]

[4] = system: Crabgrass sp.; assay: Ex 5/7 greenhouse spray, bleaching/injury/density ratings; type: in vivo
Protocol: as §1, §2
Transplanted tillering Kentucky Bluegrass was 5 to 6 months old, transplanted Poa annua was 5 to 6 months old. Tall fescue was seeded into the crabgrass pots. St. Augustine plants (Floratam and Saphire) were shipped from Port St. Lucie, Fla. Only two replicates of Saphire St. Augustine grass were used due to plant availability.
as §3, §4, §5

[5] = system: Digitaria ciliaris; assay: Ex 1 pot test, visual % damage; type: in vivo
[6] = rating 1, 0.022 lbs ai/A (0.5 oz/A)
[7] = rating 1, 0.13 lbs ai/A (3 oz/A)
[8] = rating 2, 0.022 lbs ai/A (0.5 oz/A)
[9] = rating 2, 0.13 lbs ai/A (3 oz/A)
[10] = rating 3, 0.022 lbs ai/A (0.5 oz/A)
[11] = rating 3, 0.13 lbs ai/A (3 oz/A)
[12] = rating 4, 0.022 lbs ai/A (0.5 oz/A)
[13] = rating 4, 0.13 lbs ai/A (3 oz/A)
[14] = rating 5, 0.022 lbs ai/A (0.5 oz/A)
[15] = rating 5, 0.13 lbs ai/A (3 oz/A)
[16] = rating 6, 0.022 lbs ai/A (0.5 oz/A)
[17] = rating 6, 0.13 lbs ai/A (3 oz/A)
[18] = rating 7, 0.022 lbs ai/A (0.5 oz/A)
[19] = rating 7, 0.13 lbs ai/A (3 oz/A)

## CC(C)c1nn(C(=O)NC(C)(C)C)c(=O)n1N [Amicarbazone, 4-amino-5-isopropyl-2-(tert-butyl-aminocarbonyl)-2,4-dihydro-3H-1,2,4-triazol-3-one]
[1]; 14 DAT
  percentage control: 98%
[1]; 23 DAT
  percentage control: 98%
[1]; 36 DAT
  percentage control: 98%
[1]; 49 DAT
  percentage control: 98%
[1]; 65 DAT
  percentage control: 96%
[1]; 77 DAT
  percentage control: 97%
[2]; [6]
  Green Foxtail bleaching: 100 % of control
  Green Foxtail injury: 97
[2]; [7]
  Green Foxtail bleaching: 100 % of control
  Green Foxtail injury: 67
[2]; [8]
  Green Foxtail bleaching: 104 % of control
  Green Foxtail injury: 94
[2]; [9]
  Green Foxtail bleaching: 104 % of control
  Green Foxtail injury: 69
[2]; [10]
  Green Foxtail bleaching: 104 % of control
  Green Foxtail injury: 97
[2]; [11]
  Green Foxtail bleaching: 104 % of control
  Green Foxtail injury: 81
[2]; [12]
  Green Foxtail bleaching: 104 % of control
  Green Foxtail injury: 97
[2]; [13]
  Green Foxtail bleaching: 104 % of control
  Green Foxtail injury: 84
[2]; [14]
  Green Foxtail bleaching: 160 % of control
  Green Foxtail injury: 102
[2]; [15]
  Green Foxtail bleaching: 106 % of control
  Green Foxtail injury: 77
[2]; [16]
  Green Foxtail injury: 97
[2]; [17]
  Green Foxtail injury: 73
[2]; [18]
  Green Foxtail injury: 268
[2]; [19]
  Green Foxtail injury: 144
[3]
  injury to seedlings: injured Kentucky Bluegrass seedlings
[4]; [6]
  Crabgrass bleaching: 97
  Crabgrass cover: 88
  Crabgrass injury: 94
[4]; [7]
  Crabgrass bleaching: 100
  Crabgrass cover: 67
  Crabgrass injury: 100
[4]; [8]
  Crabgrass bleaching: 100
  Crabgrass cover: 94
  Crabgrass injury: 100
[4]; [9]
  Crabgrass bleaching: 100
  Crabgrass cover: 67
  Crabgrass injury: 100
[4]; [10]
  Crabgrass bleaching: 100
  Crabgrass cover: 100
  Crabgrass injury: 100
[4]; [11]
  Crabgrass bleaching: 100
  Crabgrass cover: 72
  Crabgrass injury: 100
[4]; [12]
  Crabgrass bleaching: 100
  Crabgrass injury: 97
[4]; [13]
  Crabgrass bleaching: 100
  Crabgrass injury: 94
[4]; [14]
  Crabgrass bleaching: 97
  Crabgrass injury: 97
[4]; [15]
  Crabgrass bleaching: 100
  Crabgrass injury: 94
[4]; [16]
  Crabgrass bleaching: 97
  Crabgrass injury: 94
[4]; [17]
  Crabgrass bleaching: 100
  Crabgrass injury: 94
[4]; [18]
  Crabgrass bleaching: 100
[4]; [19]
  Crabgrass bleaching: 100
[4]; rating 8, 0.022 lbs ai/A (0.5 oz/A)
  Crabgrass bleaching: 100
[4]; rating 8, 0.13 lbs ai/A (3 oz/A)
  Crabgrass bleaching: 100
[5]; 50 g/ha and 100 g/ha, one-leaf stage
  herbicide effect: small
[5]; single application 50 g/ha, 5 DAT
  percentage control: 24%
[5]; single application 50 g/ha, 8 DAT
  percentage control: 38%
[5]; single application 50 g/ha, 14 DAT
  percentage control: 34%
[5]; single application 50 g/ha, 21 DAT
  percentage control: 34%
[5]; single application 50 g/ha, 28 DAT
  percentage control: 26%
[5]; single application 100 g/ha, 5 DAT
  percentage control: 70%
[5]; single application 100 g/ha, 8 DAT
  percentage control: 78%
[5]; single application 100 g/ha, 14 DAT
  percentage control: 82%
[5]; single application 100 g/ha, 21 DAT
  percentage control: 74%
[5]; single application 100 g/ha, 28 DAT
  percentage control: 66%
[5]; single application 200 g/ha, 5 DAT
  percentage control: 92%
[5]; single application 200 g/ha, 8 DAT
  percentage control: 96%
[5]; single application 200 g/ha, 14 DAT
  percentage control: 98%
[5]; single application 200 g/ha, 21 DAT
  percentage control: 86%
[5]; single application 200 g/ha, 28 DAT
  percentage control: 86%
